# Measurements published in the supplement of paper PMC10307832.
# What was measured:
# Test in all cases: relative viability (nuclei count vs DMSO), 5 days (fraction); higher = more cells survive
# XMD8-85 + Dasatinib = compound: CN1CCN(CC1)C2=CC(=C(C=C2)NC3=NC=C4C(=N3)N(C5=CC=CC=C5C(=O)N4C)C)OC [XMD8-85] + Cc1nc(Nc2ncc(C(=O)Nc3c(C)cccc3Cl)s2)cc(N2CCN(CCO)CC2)n1 [Dasatinib] (partner 0.075 µM)
# In short: (§1)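 Five library-drug doses in √10 steps were combined with a fixed anchor-drug dose, or a single drug was given alone, by pin tool to lung cancer cell lines in 1536-well plates the day after seeding. Nuclei were stained and counted after 5 days. Relative viability is the nuclei count in treated wells over that in vehicle wells, taken as the median of duplicate plates.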
# XMD8-85 + Linsitinib = compound: CN1CCN(CC1)C2=CC(=C(C=C2)NC3=NC=C4C(=N3)N(C5=CC=CC=C5C(=O)N4C)C)OC [XMD8-85] + C[C@]1(O)C[C@@H](c2nc(-c3ccc4ccc(-c5ccccc5)nc4c3)c3c(N)nccn32)C1 [Linsitinib] (partner 1 µM)
# In short: as §1
# 4EGI-1 + Lapatinib = compound: O=C(O)C(Cc1ccccc1[N+](=O)[O-])=NNc1nc(-c2ccc(Cl)c(Cl)c2)cs1 (mixture of isomers) [4EGI-1] + CS(=O)(=O)CCNCc1ccc(-c2ccc3ncnc(Nc4ccc(OCc5cccc(F)c5)c(Cl)c4)c3c2)o1 [Lapatinib] (partner 2 µM)
# In short: as §1
# XMD8-85 + Pemetrexed = compound: CN1CCN(CC1)C2=CC(=C(C=C2)NC3=NC=C4C(=N3)N(C5=CC=CC=C5C(=O)N4C)C)OC [XMD8-85] + Nc1nc2[nH]cc(CCc3ccc(C(=O)N[C@@H](CCC(=O)O)C(=O)O)cc3)c2c(=O)[nH]1 [Pemetrexed] (partner 0.2 µM)
# In short: as §1
Cell Line,relative viability (XMD8-85 + Dasatinib; first compound 0.08 µM),relative viability (XMD8-85 + Dasatinib; first compound 0.253 µM),relative viability (XMD8-85 + Dasatinib; first compound 0.8 µM),relative viability (XMD8-85 + Dasatinib; first compound 2.53 µM),relative viability (XMD8-85 + Dasatinib; first compound 8 µM),relative viability (XMD8-85 + Linsitinib; first compound 0.08 µM),relative viability (XMD8-85 + Linsitinib; first compound 0.253 µM),relative viability (XMD8-85 + Linsitinib; first compound 0.8 µM),relative viability (XMD8-85 + Linsitinib; first compound 2.53 µM),relative viability (XMD8-85 + Linsitinib; first compound 8 µM),relative viability (4EGI-1 + Lapatinib; first compound 0.5 µM),relative viability (4EGI-1 + Lapatinib; first compound 1.581 µM),relative viability (4EGI-1 + Lapatinib; first compound 5 µM),relative viability (4EGI-1 + Lapatinib; first compound 15.81 µM),relative viability (4EGI-1 + Lapatinib; first compound 50 µM),relative viability (XMD8-85 + Pemetrexed; first compound 0.08 µM),relative viability (XMD8-85 + Pemetrexed; first compound 0.253 µM),relative viability (XMD8-85 + Pemetrexed; first compound 0.8 µM),relative viability (XMD8-85 + Pemetrexed; first compound 2.53 µM),relative viability (XMD8-85 + Pemetrexed; first compound 8 µM)
NCI-H2087,0.953,0.802,0.959,0.79,0.472,0.929,1.01,1.09,1.06,0.7,1.11,0.934,1.07,0.911,0.222,0.654,0.697,0.692,0.731,0.659
NCI-H1563,0.493,0.431,0.448,0.465,0.412,1.2,1.26,1.13,1.27,0.844,1.11,0.809,0.994,0.393,0.536,0.718,0.809,0.67,0.778,0.631
NCI-H1395,0.438,0.414,0.42,0.428,0.309,0.792,1.09,1.35,1.01,1.08,0.975,–,1.18,0.832,0.413,0.768,0.744,0.854,0.976,0.594
NCI-H460,0.423,0.443,0.554,0.475,0.178,0.594,0.904,0.868,0.821,0.262,1.09,–,0.975,0.131,0.0327,0.0608,0.0555,0.0635,0.0564,0.0781
NCI-H2228,0.451,0.514,0.516,0.398,0.231,0.587,0.944,0.609,0.858,0.444,1.36,1.1,1.03,0.803,0.172,0.334,0.319,0.343,0.398,0.237
HOP-62,0.644,0.594,0.661,–,0.433,1.15,0.966,0.87,0.814,–,1.06,–,1.08,0.961,0.362,0.307,0.358,0.349,0.251,0.247
LC-2-ad,0.415,0.319,0.482,0.345,0.237,0.905,0.923,0.836,0.692,0.452,0.988,0.89,0.942,0.228,0.175,0.261,0.26,0.253,0.274,0.249
EKVX,0.518,0.545,0.478,0.536,0.475,0.808,1.06,1.03,1.18,0.851,0.222,0.17,0.184,0.204,0.18,0.276,0.347,0.382,–,0.381
NCI-H1651,0.46,0.334,0.511,0.387,0.307,0.957,0.909,0.945,1.08,0.659,0.993,0.85,0.813,0.665,0.185,0.506,0.617,0.602,0.748,0.445
SK-LU-1,0.135,0.183,0.208,0.172,0.179,0.947,1.11,1.12,1.07,0.91,0.972,1.06,0.803,0.698,0.487,0.973,0.916,0.966,1.1,0.851
NCI-H2405,0.206,0.206,0.221,0.198,0.177,–,0.912,0.951,0.735,0.739,1.27,0.801,1.23,1.09,0.685,1.12,1.05,1.04,1.01,0.602
HCC-15,0.576,0.632,0.614,0.656,0.417,0.867,0.849,0.843,0.866,0.661,0.949,0.914,0.871,0.8,0.423,0.202,0.216,0.212,0.207,0.187
COR-L23,0.516,0.502,0.555,0.63,0.347,0.972,0.989,1.02,0.99,0.497,1.13,0.826,0.981,0.536,0.14,0.187,0.2,0.199,0.187,0.18
PC-3 [JPC-3],0.889,0.932,0.939,1.14,0.997,0.958,0.994,1.02,1.09,–,0.518,0.416,0.443,–,0.39,1.21,0.928,1.1,1.27,0.452
A-427,0.734,0.717,0.749,0.797,0.618,1.24,1.18,1.11,1.16,1.02,1.11,0.728,1.06,0.997,0.6,1.09,1.02,1.08,1.1,0.754
